The source of these data is patent publication US20110269219A1, “Method for increasing algae growth and the use thereof in production of algae-derived biofuels and other chemical” (GST Growth, LLC, priority 2010, published 2011).

This assay concerns Protococcus. In words: Growth of Protococcus liquid cultures monitored at Absorbance 550 nm. The format is cell-based. To be noted: Protococcus in water. An excerpt:
Liquid cultures were established in the laboratory from the algae specimens collected to include three experimental treatments, which were: A control of Protococcus in water; • 1). Protococcus in water supplemented with 0.5% methanol, which is known to stimulate growth of PPFM bacteria; and • 2) Protococcus in water supplemented with a Vitamin B12 overproducing PPFM. The growth of the cultures was monitored at Absorbance 550 nm with the results below in Table 2 being obtained: […]

As to `CO` [Methanol, methanol], the A550 nm came to 0.094 (After One Week), 0.085 (After Two Weeks) and 0.069 (Start).
